Assay results taken from patent US10738028B2, “Spiro three-membered ring, spiro five-membered ring peptide deformylase inhibitor and use thereof in antibacteria and anti-tumor” (priority 2016, dated 2020).
Like-named read-outs stand apart in the source and are kept apart here.

What was measured:
Type in all cases: cell-based
[1] = tested on: Enterococcus faecalis (EFA); experiment: MIC, two-fold agar dilution (CLSI), clinical isolates
Procedure, shortened: (§1)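 Susceptibility was tested using CLSI two-fold agar dilution against the strains examined.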

[2] = tested on: Enterococcus faecium (EFM); experiment: as above
Procedure, shortened: as §1

[3] = tested on: Escherichia coli (including ESBLs, non-ESBLs); experiment: as above
Procedure, shortened: as §1

[4] = tested on: Moraxella catarrhalis (BCA); experiment: as above
Procedure, shortened: as §1

[5] = tested on: Streptococcus pneoumoniae (SPN); experiment: as above
Procedure, shortened: as §1

[6] = tested on: methicillin-resistant Staphylococcus aureus (MRSA); experiment: as above
Procedure, shortened: as §1

[7] = tested on: methicillin-resistant Staphylococcus epidermidis (MRSE); experiment: as above
Procedure, shortened: as §1

[8] = tested on: methicillin-sensitive Staphylococcus aureus (MSSA); experiment: as above
Procedure, shortened: as §1

[9] = tested on: methicillin-sensitive Staphylococcus epidermidis (MSSE); experiment: as above
Procedure, shortened: as §1

[10] = tested on: HCT-116 colorectal cancer cell line; experiment: CCK-8 proliferation inhibition; settings: Homo sapiens, HCT-116, 72 h, concentration of 30 μM, 72 hours, CCK-8
Procedure, shortened: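 Proliferation over 72 hours of compound treatment was measured with CCK-8 against a 1‰ DMSO control.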

[11] = tested on: A549 lung cancer cell line; experiment: CCK-8 proliferation inhibition; settings: Homo sapiens, A549, 72 h, concentration of 30 μM
Procedure, shortened: (§2)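 Plating at 2000 cells/well, then incubation overnight at 37° C. Next, a range of compound concentrations for 72 hours (control 1‰ DMSO). Finally, medium decanted and CCK-8 diluted 1:10 added.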

[12] = tested on: BEL-7402 liver cancer cell line; experiment: CCK-8 proliferation inhibition; settings: Homo sapiens, Bel-7402, 72 h, concentration of 30 μM
Procedure, shortened: as §2

[13] = tested on: MGC-803 gastric cancer cell line; experiment: CCK-8 proliferation inhibition; settings: Homo sapiens, MGC-803, 72 h, concentration of 30 μM
Procedure, shortened: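 Using media specific to each line (1640 for MGC-803 and Jurkat, F12 for PC3, DMEM high glucose for MCF-7, each with 10% newborn bovine serum), cells at 2000/well were treated for 72 h with serially formulated compounds, then assessed with CCK-8 diluted 1:10.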

O=C(C[C@@H](CC1CCCC1)C(=O)N1CC2(CC2)C[C@H]1C(=O)Nc1ccc(N2CCOCC2)cc1)NO [Example 61]
Anti-bacterial activity (MIC), strain EFA 15-1 ([1]; clinical isolate EFA 15-1): > 32 µg/mL | Anti-bacterial activity (MIC), strain EFA 15-2 ([1]; clinical isolate EFA 15-2): > 32 µg/mL | Anti-bacterial activity (MIC), strain EFA 15-3 ([1]; clinical isolate EFA 15-3): > 32 µg/mL | Anti-bacterial activity (MIC), strain EFA 15-4 ([1]; clinical isolate EFA 15-4): > 32 µg/mL | Anti-bacterial activity (MIC), strain EFA 15-5 ([1]; clinical isolate EFA 15-5): > 32 µg/mL | Anti-bacterial activity (MIC), strain EFA 15-6 ([1]; clinical isolate EFA 15-6): > 32 µg/mL | Anti-bacterial activity (MIC), strain EFA 15-9 ([1]; clinical isolate EFA 15-9): 8 µg/mL | Anti-bacterial activity (MIC), strain EFM 15-1 ([2]; clinical isolate EFM 15-1): > 32 µg/mL | Anti-bacterial activity (MIC), strain EFM 15-2 ([2]; clinical isolate EFM 15-2): > 32 µg/mL | Anti-bacterial activity (MIC), strain EFM 15-3 ([2]; clinical isolate EFM 15-3): > 32 µg/mL | Anti-bacterial activity (MIC), strain EFM 15-4 ([2]; clinical isolate EFM 15-4): > 32 µg/mL | Anti-bacterial activity (MIC), strain EFM 15-6 ([2]; clinical isolate EFM 15-6): 1 µg/mL | Anti-bacterial activity (MIC), strain ECO+ 15-1 ([3]; clinical isolate ECO+ 15-1): > 32 µg/mL | Anti-bacterial activity (MIC), strain ECO+ 15-2 ([3]; clinical isolate ECO+ 15-2): > 32 µg/mL | Anti-bacterial activity (MIC), strain ECO+ 15-3 ([3]; clinical isolate ECO+ 15-3): 1 µg/mL | Anti-bacterial activity (MIC), strain ECO+ 15-4 ([3]; clinical isolate ECO+ 15-4): 1 µg/mL | Anti-bacterial activity (MIC), strain ECO− 15-1 ([3]; clinical isolate ECO− 15-1): > 32 µg/mL | Anti-bacterial activity (MIC), strain ECO− 15-2 ([3]; clinical isolate ECO− 15-2): > 32 µg/mL | Anti-bacterial activity (MIC), strain ECO− 15-3 ([3]; clinical isolate ECO− 15-3): > 32 µg/mL | Anti-bacterial activity (MIC), strain ECO− 15-4 ([3]; clinical isolate ECO− 15-4): > 32 µg/mL | Anti-bacterial activity (MIC), strain BCA 14-1 ([4]; clinical isolate BCA 14-1): 8 µg/mL | Anti-bacterial activity (MIC), strain BCA 14-4 ([4]; clinical isolate BCA 14-4): 8 µg/mL | Anti-bacterial activity (MIC), strain BCA 14-5 ([4]; clinical isolate BCA 14-5): 1 µg/mL | Anti-bacterial activity (MIC), strain BCA 14-6 ([4]; clinical isolate BCA 14-6): 1 µg/mL | Anti-bacterial activity (MIC), strain BCA 14-7 ([4]; clinical isolate BCA 14-7): 8 µg/mL | Anti-bacterial activity (MIC), strain BCA 14-8 ([4]; clinical isolate BCA 14-8): 8 µg/mL | Anti-bacterial activity (MIC), strain BCA 14-10 ([4]; clinical isolate BCA 14-10): 8 µg/mL | Anti-bacterial activity (MIC), strain SPN 16-2 ([5]; clinical isolate SPN 16-2): 2 µg/mL | Anti-bacterial activity (MIC), strain SPN 16-4 ([5]; clinical isolate SPN 16-4): 2 µg/mL | Anti-bacterial activity (MIC), strain MRSA 15-1 ([6]; clinical isolate MRSA 15-1): 1 µg/mL | Anti-bacterial activity (MIC), strain MRSA 15-2 ([6]; clinical isolate MRSA 15-2): 1 µg/mL | Anti-bacterial activity (MIC), strain MRSA 15-3 ([6]; clinical isolate MRSA 15-3): 1 µg/mL | Anti-bacterial activity (MIC), strain MRSA 15-4 ([6]; clinical isolate MRSA 15-4): 1 µg/mL | Anti-bacterial activity (MIC), strain MRSE 15-1 ([7]; clinical isolate MRSE 15-1): 1 µg/mL | Anti-bacterial activity (MIC), strain MRSE 15-2 ([7]; clinical isolate MRSE 15-2): 1 µg/mL | Anti-bacterial activity (MIC), strain MRSE 15-3 ([7]; clinical isolate MRSE 15-3): 1 µg/mL | Anti-bacterial activity (MIC), strain MRSE 15-7 ([7]; clinical isolate MRSE 15-7): 1 µg/mL | Anti-bacterial activity (MIC), strain MSSA 15-3 ([8]; clinical isolate MSSA 15-3): 1 µg/mL | Anti-bacterial activity (MIC), strain MSSA 15-4 ([8]; clinical isolate MSSA 15-4): 1 µg/mL | Anti-bacterial activity (MIC), strain MSSA 15-5 ([8]; clinical isolate MSSA 15-5): > 32 µg/mL | Anti-bacterial activity (MIC), strain MSSA 15-6 ([8]; clinical isolate MSSA 15-6): 1 µg/mL | Anti-bacterial activity (MIC), strain MSSE 15-3 ([9]; clinical isolate MSSE 15-3): 1 µg/mL | Anti-bacterial activity (MIC), strain MSSE 15-4 ([9]; clinical isolate MSSE 15-4): 1 µg/mL | Anti-bacterial activity (MIC), strain MSSE 15-5 ([9]; clinical isolate MSSE 15-5): 1 µg/mL | Anti-bacterial activity (MIC), strain MSSE 15-6 ([9]; clinical isolate MSSE 15-6): 32 µg/mL | inhibition at 30 µM ([10]; Table 5, read-out: Inhibition of proliferation, Colorectal cancer HCT116): ≥ 30% | inhibition at 30 µM ([10]; read-out: HCT116 inhibition rate/%): 35% | inhibition at 30 µM [11]: 10% | inhibition at 30 µM [12]: 50% | inhibition at 30 µM [13]: 31%
